Publication PMC8292346, “Dysfunction of the key ferroptosis-surveilling systems hypersensitizes mice to tubular necrosis during acute kidney injury” (Nature Communications, 2021)
Several values for one entry are separate records, joined by “and”; a condition that tells them apart may be missing. Equal entries are not always repeated. Where two headings read alike, the source gives them in different places. Each block holds one compound with its values, some of them ahead of it.

Experiments:
[1] = test system: CD10-135 cells; assay: FINs/ferroptocide, LDH release assay; format: cell-based, human; parameters: LDH release: unit not given here; details: Nec-1f 30 µM
[2] = test system: HT1080 cells; assay: CellTiter-Glo luminescent cell viability assay (ATP), dose-response; format: cell-based, human
Experimental: Cells were plated in an opaque-walled 96-well plate and treatment with ferroptosis inducers and/or ferroptosis inhibitors was initiated 24 h later. […] Here, the reaction agent was directly added to the wells, mixed on an orbital shaker for 2 min, and then incubated at room temperature for 10 min. The luminescence was detected using a Promega GloMax® instrument.

[3] = test system: Mouse cortical tubule cells (MCT); assay: FINs/ferroptocide, 7-AAD/annexin V flow cytometry; format: cell-based; details: MCT, alone (DMSO) or with Fer-1 1 µM, Nec-1s 30 µM, Nec-1f 30 µM
Experimental: (§1) To induce necroptosis in a human cell line, HT29 cells were stimulated at the indicated time points with 20 ng/ml human TNFα (Biolegend), 1 μM SMAC-mimetics (Birinapant, Chemietek), and 20 μM zVAD-fmk (Selleckchem, herein referred to as zVAD). For the induction of necroptosis in NIH3T3 cells, cells were incubated with 20 ng/ml TNF-α and 20 μM zVAD for indicated time points. […] Cells were seeded in six-well plates or petri dishes. […] After indicated time points, cells were collected and prepared for flow cytometry, immunoblotting, and/or LDH release assays.
(§2) Cells were harvested and the pellets were washed twice in PBS and stained with 5 μl of 7-AAD (BD Biosciences) and 5 μl of annexin-V-FITC (BD Biosciences) added to 100 μl annexin-V binding buffer (BD Biosciences). After 15 min, cells were recorded on the LSRII with the FACS Diva 6.1.1 software (BD Biosciences) and subsequently analyzed with the FlowJo v10 software (Tree Star).

[4] = test system: NIH3T3 cells; assay: Ferroptosis inducers (FINs)/ferroptocide, 7-AAD/annexin V flow cytometry; format: cell-based, murine; details: NIH3T3, 10 µM FIN56 24 h, alone (DMSO) or with Fer-1 1 µM, Nec-1s 30 µM, Nec-1f 30 µM
Experimental: as §1, §2

[5] = test system: HT1080 cells; assay: as above; format: cell-based, human
[6] = test system: NIH3T3 cells; assay: as above; format: cell-based, murine; details: NIH3T3, 5 µM erastin 24 h, alone (DMSO) or with Fer-1 1 µM, Nec-1s 30 µM, Nec-1f 30 µM
[7] = Stability in human plasma; format: in vitro ADME; details: 1 µM, 37 °C
Experimental: Plasma stability is defined as the percentage of parent compound remaining in plasma over the time. Here, incubations were carried out in 5 aliquots of 70 µl each (one for each time point), in duplicates. […] The percentage of the test compounds remaining after incubation in plasma and their half-lives (T1/2) was calculated.

[8] = both, microsomes, 2 µM, pH 7.4
[9] = test system: primary murine tubular cells; assay: RSL3-induced LDH release of primary kidney tubular cells; format: cell-based; details: primary kidney tubular cells, RSL3 14 h, alone (DMSO) or with Fer-1 or Nec-1f 30 µM
Experimental: The LDH release of cells or of freshly isolated kidney tubules was measured according to manufacturers’ instructions at indicated time points. In brief, an aliquot of the supernatant was taken and Lysis Solution was added for 45 min to induce maximal LDH release before another aliquot of the supernatant was taken. Subsequently, the supernatants were incubated with CytoTox 96® Reagent for 15 min protected from light at room temperature before adding Stop Solution. Absorbance was measured at 490 nm.
Generation, cell culture, and induction of cell death in primary murine tubular cells. Murine tubular cells were generated by outgrowth from isolated renal tubules (see above). Primary murine tubules were placed in six-well plates containing Dulbecco’s Modified Eagle Medium F-12 Nutrient Mixture without phenol red (DMEM/F12, Thermo Fisher), supplemented with 0.01 mg/ml recombinant human insulin, 5.5 μg/ml human transferrin, 0.005 μg/ml Na2SeO3 (ITS without linoleic acid, Sigma Aldrich), 50 nM hydrocortisone, 100 U/ml penicillin, and 100 μg/ml streptomycin (Pen/Strep, Thermo Fisher). After two days, the outgrown primary murine tubular cells were washed with PBS and a fresh medium was added. When the number of primary murine tubular cells reached approximately 50% confluence, the cells were removed from the six-well plates using Trypsin-EDTA (Thermo Fisher), washed with medium and a Ficoll Paque Plus (Sigma Aldrich) gradient was performed to remove any dead cells, and debris from the murine renal tubules. Cells were washed twice with PBS and seeded in six-well plates with medium. Once the number of grown cells reached approximately 50% confluence, they were washed with PBS and treated with type 2 FIN: RSL3 (also see Supplementary Table 2 for details). After 14 h, medium and cells were collected and prepared for LDH release assay. Images of the treated primary murine tubular cells were obtained using a 20×/0.30 PH1 objective on a Leica DMi1 microscope.

SMILES: CC1(CCO)CC2(CCC(C(C)(C)C)CC2)OO1 (stereo not drawn) [FINO2]
LDH release ([1]; CD10-135, FINO2 alone (FIN) or with Fer-1, Nec-1s): 73.83 and 38.4304 and 67.2452
ATP luminescence (CellTiterGlo) ([2]; HT1080, inducer at 0.01 µM): 100%
ATP luminescence (CellTiterGlo) ([2]; HT1080, inducer at 0.1 µM): 100%
ATP luminescence (CellTiterGlo) ([2]; HT1080, inducer at 0.5 µM): 100%
ATP luminescence (CellTiterGlo) ([2]; HT1080, inducer at 1 µM): 100% and 53.72%
ATP luminescence (CellTiterGlo) ([2]; HT1080, inducer at 50 µM): 0.7403% and 0.06%
ATP luminescence (CellTiterGlo) ([2]; HT1080, inducer at 100 µM): 0% and 0.26% and 0.2% and 0.08%
ATP luminescence (CellTiterGlo) ([2]; HT1080, inducer at 200 µM): 0% and 0.3058% and 0.04%

SMILES: O=S(=O)(NC1CCCCC1)c1ccc2c(c1)C(=NO)c1cc(S(=O)(=O)NC3CCCCC3)ccc1-2 [FIN56]
double-negative events (7-AAD/annexin V) ([3]; 10 µM FIN56 24 h): 96.5% and 90.7% and 88.5%
LDH release ([1]; CD10-135, FIN56 alone (FIN) or with Fer-1, Nec-1s): 81.45 and 58.7091 and 60.5407
double-negative events (7-AAD/annexin V) [4]: 87.6% and 95% and 90.3%
ATP luminescence (CellTiterGlo) ([2]; HT1080, inducer at 0.01 µM): 100%
ATP luminescence (CellTiterGlo) ([2]; HT1080, inducer at 0.1 µM): 100%
ATP luminescence (CellTiterGlo) ([2]; HT1080, inducer at 0.5 µM): 100%
ATP luminescence (CellTiterGlo) ([2]; HT1080, inducer at 1 µM): 100%
Induction of ferroptosis ([5]; HT1080): does not effectively drive ferroptosis
double-negative events (7-AAD/annexin V) ([5]; HT1080, 10 µM FIN56 24 h, alone (DMSO) or with Fer-1 1 µM, Nec-1s 30 µM, Nec-1f 30 µM): 85.5% and 85.1% and 86%
double-negative events (7-AAD/annexin V) ([5]; HT1080, FIN56 10 µM, 24 h): 95% and 96% and 94%
double-negative events (7-AAD/annexin V) ([5]; HT1080, FIN56 10 µM, 48 h): 92% and 90% and 74%
double-negative events (7-AAD/annexin V) ([5]; HT1080, FIN56 20 µM, 24 h): 92% and 93%
double-negative events (7-AAD/annexin V) ([5]; HT1080, FIN56 20 µM, 48 h): 93% and 92% and 89% and 71%
double-negative events (7-AAD/annexin V) ([5]; HT1080, FIN56 50 µM, 24 h): 85% and 92% and 93%
double-negative events (7-AAD/annexin V) ([5]; HT1080, FIN56 50 µM, 48 h): 83% and 87% and 78% and 65%
double-negative events (7-AAD/annexin V) ([5]; HT1080, FIN56 100 µM, 24 h): 85% and 86% and 80%

SMILES: CCOc1ccccc1-n1c(C(C)N2CCN(C(=O)COc3ccc(Cl)cc3)CC2)nc2ccccc2c1=O (stereo not drawn) [erastin]
double-negative events (7-AAD/annexin V) [6]: 10.4% and 3.36% and 6.36% and 2.66%
double-negative events (7-AAD/annexin V) ([3]; 5 µM erastin 24 h): 51.9% and 85.2% and 80.4% and 71%
LDH release ([1]; CD10-135, erastin alone (FIN) or with Fer-1, Nec-1s): 92.68 and 85.398 and 91.0128
ATP luminescence (CellTiterGlo) ([2]; HT1080, inducer at 0.01 µM): 100%
ATP luminescence (CellTiterGlo) ([2]; HT1080, inducer at 0.1 µM): 100%
ATP luminescence (CellTiterGlo) ([2]; HT1080, inducer at 0.5 µM): 90.0281% and 100%
ATP luminescence (CellTiterGlo) ([2]; HT1080, inducer at 1 µM): 57.4401% and 100%
ATP luminescence (CellTiterGlo) ([2]; HT1080, inducer at 100 µM): 3.949%
ATP luminescence (CellTiterGlo) ([2]; HT1080, inducer at 200 µM): 12.3673% and 20.98%

Human plasma stability, parent compound remaining ([7]; 0 min): 100%
Human plasma stability, parent compound remaining ([7]; 20 min): 65%
Human plasma stability, parent compound remaining ([7]; 40 min): 31%
Human plasma stability, parent compound remaining ([7]; 60 min): 16%
Human plasma stability, parent compound remaining ([7]; 120 min): 2%
SMILES: CC(C)[N+](C)(CCOC(=O)C1c2ccccc2Oc2ccccc21)C(C)C [propantheline, reference compound]

Human microsomal stability, parent compound remaining ([8]; 0 h): 100%
Human microsomal stability, parent compound remaining ([8]; 7 min): 62%
Human microsomal stability, parent compound remaining ([8]; 0.25 h): 26%
Human microsomal stability, parent compound remaining ([8]; 25 min): 6%
Human microsomal stability, parent compound remaining ([8]; 40 min): 2%
SMILES: O=C(O)Cc1ccccc1Nc1c(Cl)cccc1Cl [diclofenac, reference compound]

SMILES: C[C@@H]1CC[C@@]23C[C@H](O)C(=O)[C@@]2(O)[C@]1(C)[C@H](OC(=O)CCl)C[C@@H](C1=CCn2c(=O)n(-c4ccccc4)c(=O)n2C1)[C@@H]3C [ferroptocide]
LDH release ([1]; CD10-135, ferroptocide alone (FIN) or with Fer-1, Nec-1s): 93.9 and 97.7396
ATP luminescence (CellTiterGlo) ([2]; HT1080, inducer at 0.01 µM): 100%
ATP luminescence (CellTiterGlo) ([2]; HT1080, inducer at 0.1 µM): 100%
ATP luminescence (CellTiterGlo) ([2]; HT1080, inducer at 0.5 µM): 67.8646% and 100%
ATP luminescence (CellTiterGlo) ([2]; HT1080, inducer at 50 µM): -0.02481% and 0.12%
ATP luminescence (CellTiterGlo) ([2]; HT1080, inducer at 100 µM): 0% and 0.4% and -1.103% and 0.1%
ATP luminescence (CellTiterGlo) ([2]; HT1080, inducer at 200 µM): 0% and -0.7765% and 0.13%

SMILES: COC(=O)c1ccc([C@@H]2c3[nH]c4ccccc4c3C[C@@H](C(=O)OC)N2C(=O)CCl)cc1 [RSL3]
LDH release ([1]; CD10-135, RSL3 alone (FIN) or with Fer-1, Nec-1s): 53.16 and 45.5353
ATP luminescence (CellTiterGlo) ([2]; HT1080, inducer at 0.01 µM): 100%
ATP luminescence (CellTiterGlo) ([2]; HT1080, inducer at 0.1 µM): 100%
ATP luminescence (CellTiterGlo) ([2]; HT1080, inducer at 0.113 µM): 100%
ATP luminescence (CellTiterGlo) ([2]; HT1080, inducer at 0.5 µM): 30.56% and 28.07% and 28.8%
ATP luminescence (CellTiterGlo) ([2]; HT1080, inducer at 1 µM): 18.36% and 19.43% and 14.93%
ATP luminescence (CellTiterGlo) ([2]; HT1080, inducer at 1.13 µM): 55.71% and 77.56% and 64%
ATP luminescence (CellTiterGlo) ([2]; HT1080, inducer at 5 µM): 11.16% and 17.99% and 22.07%
double-negative events (7-AAD/annexin V) ([5]; HT1080, 1.13 µM RSL3 6 h, alone (DMSO) or with Fer-1 1 µM, Nec-1s 30 µM, Nec-1f 30 µM): 61% and 47.8% and 51.8% and 65.7%
LDH release [9]: 91.18% and 51.15% and 48.12% and 50.73% and 54.44%
